Results reported in patent publication US20080268439A1, “ASSAY SYSTEMS AND METHODS FOR DETECTING MOLECULES THAT INTERACT WITH SK2 CHANNELS” (priority 2007, published 2008).

Legend:
[1] = molecular target: intermediate conductance Ca^2+-activated K^+ channels (Homo sapiens, UniProt O15554); conditions: cited from earlier work
[2] = molecular target: T1, hSK2A^+ expressed in mammalian tsA201 cells (Homo sapiens, UniProt Q9H2S1, DUP58-58); assay: Membrane potential sensitive dye fluorescence (FLIPR) assay in tsA201 cells stably expressing SK2; assay type: cell-based; conditions: FIG. 9; for Hill coefficient (nH): inhibition of ATP/Tg induced decrease in fluorescence
T1 construct: other: 100 nM to 1 mM added online; normalized to maximum fluorescence a; Hill coefficient (nH); hSK2A^+ was 1743 nucleotides in length and encoded a polypeptide of 580 amino acids
T1 sequence (Q9H2S1 with tags, fused parts or gaps DUP58-58): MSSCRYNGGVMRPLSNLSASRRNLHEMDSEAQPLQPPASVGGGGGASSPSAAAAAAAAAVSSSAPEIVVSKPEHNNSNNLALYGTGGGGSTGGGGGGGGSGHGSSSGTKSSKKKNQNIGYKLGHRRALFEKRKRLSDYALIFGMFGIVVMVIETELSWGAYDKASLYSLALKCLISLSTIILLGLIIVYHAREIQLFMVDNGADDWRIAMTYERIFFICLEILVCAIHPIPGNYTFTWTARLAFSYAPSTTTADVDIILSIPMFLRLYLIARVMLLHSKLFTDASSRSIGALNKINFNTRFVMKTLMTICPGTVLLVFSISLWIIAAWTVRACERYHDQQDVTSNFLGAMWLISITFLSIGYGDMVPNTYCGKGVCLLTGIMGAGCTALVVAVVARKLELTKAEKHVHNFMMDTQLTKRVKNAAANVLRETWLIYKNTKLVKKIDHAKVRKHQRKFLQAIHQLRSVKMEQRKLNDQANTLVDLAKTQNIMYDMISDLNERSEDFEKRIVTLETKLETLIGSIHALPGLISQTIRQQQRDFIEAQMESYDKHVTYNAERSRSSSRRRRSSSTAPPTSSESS
Procedure: (§1) These cells were plated in a black optical bottom 384 well assay plate at a density of 8×10^6 cells/plate. […] After a 30-minute incubation in the voltage sensitive dye, the cell plate was transferred to a fluorescence plate reader (FLIPR384™, Molecular Devices), and ten baseline fluorescence readings were obtained.
(§2) In FIG. 8, time is represented in seconds on the X-axis, and fluorescence is represented in au on the Y-axis. ATP/Tg addition is indicated at time I, and CsCl addition is indicated at time II.
(§3) The magnitude of the ATP/Tg induced decrease in fluorescence was measured in the presence of each of a panel of known SK2 inhibitors. […]

[3] = test system: hSK2A^+ expressed in mammalian tsA201 cells; assay: as above; assay type: cell-based, human; conditions: 10 minutes incubation
Procedure: as §1, §2, §3

intermediate conductance Ca^2+-activated K^+ channels, sequence (O15554 whole entry): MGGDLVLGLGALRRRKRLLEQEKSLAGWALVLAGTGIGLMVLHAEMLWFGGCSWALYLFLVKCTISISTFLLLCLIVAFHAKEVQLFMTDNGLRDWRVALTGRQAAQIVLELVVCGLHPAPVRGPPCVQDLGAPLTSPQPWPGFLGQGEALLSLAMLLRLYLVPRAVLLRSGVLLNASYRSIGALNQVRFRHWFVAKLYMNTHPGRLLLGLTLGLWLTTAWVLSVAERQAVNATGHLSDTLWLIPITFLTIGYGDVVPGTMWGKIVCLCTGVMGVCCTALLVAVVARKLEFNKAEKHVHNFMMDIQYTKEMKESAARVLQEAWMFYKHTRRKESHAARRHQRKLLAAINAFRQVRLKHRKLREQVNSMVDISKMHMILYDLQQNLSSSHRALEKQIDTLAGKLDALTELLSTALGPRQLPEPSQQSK

CCn1c(=O)[nH]c2ccccc21 [1-EBIO, 1-ethyl-2-benzimidazolinone]
effect on intermediate conductance Ca2+-activated K+ channels [1]: enhance activity

O=c1[nH]c2cc(C(F)(F)F)ccc2n1-c1cc(C(F)(F)F)ccc1O [NS1619]
binding affinity of the inhibitors tested (rank order) [2]: apamin>scyllatoxin>NS1619>quinidine>bicuculline

C[N+]1(C)CCc2cc3c(cc2[C@H]1[C@@H]1OC(=O)c2c1ccc1c2OCO1)OCO3.[Br-] [bicuculline methobromide]
binding affinity of the inhibitors tested (rank order) [2]: apamin>scyllatoxin>NS1619>quinidine>bicuculline | Hill coefficient (nH) [2]: 1

Nc1cc(N2CCCCC2)nc(N)[n+]1[O-] [minoxidil]
effect on the fluorescence signals (responses to ATP/Tg and Cs+) ([3]; tested at 1.43 μM): no effect

CC(N/C(=N\C#N)Nc1ccncc1)C(C)(C)C (centres unmarked) [pinacidil]
effect on the fluorescence signals (responses to ATP/Tg and Cs+) ([3]; tested at 286 μM): no effect

C=C[C@H]1C[N@@]2CC[C@H]1C[C@@H]2[C@@H](O)c1ccnc2ccc(OC)cc12 [quinidine]
binding affinity of the inhibitors tested (rank order) [2]: apamin>scyllatoxin>NS1619>quinidine>bicuculline | Hill coefficient (nH) [2]: 0.6

iberiotoxin: inhibitor of the IK channel; isolated from Mesobuthus taniulus (QFTDVDCSVSKECWSVCKDLFGVDRGKCMGKKCRCYQ)
effect on the fluorescence signals (responses to ATP/Tg and Cs+) ([3]; tested at 833 nM): no effect

noxiustoxin: inhibitor of Ca2+- and voltage activated channels (TIINVKCTSPKQCSKPCKELYGSSAGAKCMNGKCKCYNN)
effect on the fluorescence signals (responses to ATP/Tg and Cs+) ([3]; tested at 833 nM): no effect

α-dendrotoxin (QPRRKLCILHRNPGRCYDKIPAFYYNQKKKQCERFDWSGCGGNSNRFKTIEECRRTCIG)
effect on the fluorescence signals (responses to ATP/Tg and Cs+) ([3]; tested at 833 nM): no effect
